Laboratory results published in patent US10206862B2, “Supplement to support healthy hair, skin, and nails” (priority 2016, dated 2019).

What was measured:
[1] = system: PGE2 release from UVB stressed keratinocytes; experiment: PGE2 assay in UVB stressed keratinocytes; type: cell-based; conditions: telomerized human keratinocytes, UVB 15 mJ/cm^2, 24 hours treatment; PGE2 (pg/mL) normalized to ATP; FIG. 3
Protocol: Telomerized human keratinocytes are propgated in EpiLife® Media in CO2-incubator at 37° C. in T150 flasks (available from Corning®, Corning, N.Y., USA). […] The plates were incubated another 2 days until cell confluency reaches >80%. At this point, the cells were irradiated with a Bio-Sun™ UV with UVB light for a dose of 15 mJ/cm^2. The media was then switched with fresh medium prepared with the treatments. The cells were then incubated for 24 hours before harvest. At harvest, the media supernatant was collected and transferred to a deep well plate and frozen in −80° C. for later determination of PGE2 levels. PGE2 levels were measured from the media supernatants using the PGE2 Assay kit (available from Cisbio™, Bedford, Mass.) per manufacturer's directions. PGE2 levels here were normalized to the ATP measurements such that the final PGE2 values were recorded as PGE2 (pg/mL)/ATP level treatment compared to control. Typically, each data point is the average of 4 replicates.

keratinocytes = experiment: Reduction in ATP depletion after peroxide stress (CellTiter-Glo); type: cell-based; conditions: 1 hour treatment, net luminescence = treatment counts minus vehicle control counts
Protocol: Hydrogen peroxide is a well-known ROS and is commonly used as a model to analyze the effects of various ROS. In this test, keratinocytes were cultured (passage <8) in T150 flasks using EpiLife® medium (Calcium Free and Phenol Red Free, supplemented with penicillin/streptomycin and keratinocytes growth supplement, Invitrogen™ cat# MEPICFPRF500). The keratinocytes were then plated in 24 well plates, 40,000 cells/well, 1 ml media. After 24 hours, the keratinocytes were treated with organic astaxanthin and astaxanthin in combination with Digestive Support Blend (see Example 1 above), Stress and Energy Support Blend (see Example 1 above), Reishi, or biotin for 1 hour. The keratinocytes were washed in PBS and ATP levels were measured using the CellTiter-Glo® Luminescent Cell Viability Assay (available from Promega, cat# G7571/2/3) per manufacturer's directions. Luminescence was measured on a SpectraMax® M3 (available from Molecular Devices, Sunnyvale, Calif., USA). Net luminescence (or net ATP) is calculated by subtracting the luminescence counts from the vehicle control from the luminescence counts from the treatment groups.

[2] = system: Antioxidant Response Element (ARE); experiment: ARE reporter assay (ARE-32 luciferase reporter cell line); type: cell-based, rat; conditions: ARE32 (MCF7) luciferase reporter cells, 24 hours treatment; Nrf2 antioxidant response activation
Protocol: ARE activation was quantitated using the ARE-32 reporter cell line available from CXR-Biosciences as described in the ARE Assay below. ARE32 is a stable MCF7 cell line containing pGL8x-ARE (8 copies of the rat GST ARE linked to the luciferase gene) and pCDNA3.1, which contains the neomycin selectable marker. Selection was performed in the presence of G418 and resistant clones were isolated. Clones were screened for induction of luciferase in response to tBHQ (tert-Butylhydroquinone). The ARE32 cells are maintained routinely in the DMEM (phenol red free) containing: 10% FBS, 50 units/ml penicillin & 50 μg/ml streptomycin, 0.8 mg/ml G418. […] Cells were frozen in medium that contains 90% FBS and 10% dimethyl sulfoxide (DMSO). In a 96 well-plate, seed 1×10^4 cells/well in 100 μl DMEM containing 50 units/ml penicillin, 50 μg/ml streptomycin, 0.8 mg/ml G418 and 10% FBS. Next, incubate the cells at 37° C. in a 5% CO2 incubator for 24 hrs, and then replace the medium with 100 μl fresh media. Treat with test compounds at 2 μl per well, positive control was 25 μM TBHQ. (10 mM tBHQ of stock solution freshly prepared in DMSO). Add 100 μl of media after treatment for a final assay volume of 200 μL. Incubate the cells at 37° C. in CO2 incubator for another 24 hours. […]

Row | SMILES | PGE2 release from keratinocytes [1] | Net ATP (keratinocytes) | ARE - Fold Over Control [2]
1 | O=C(O)CCCC[C@@H]1SC[C@@H]2NC(=O)N[C@@H]21 [Biotin] | reduce PGE2 | 947 | 1.71 Fold Over Control
2 | CC1=C(/C=C/C(C)=C/C=C/C(C)=C/C=C/C=C(C)/C=C/C=C(C)/C=C/C2=C(C)C(=O)[C@@H](O)CC2(C)C)C(C)(C)C[C@H](O)C1=O [Organic Astaxanthin, Astaxanthin] | reduce PGE2 | 1096 | 2.65 Fold Over Control
